Molecular target: T1, angiotensin converting enzyme (Oryctolagus cuniculus, UniProt P12822)
T1 sequence (P12822 34-1310): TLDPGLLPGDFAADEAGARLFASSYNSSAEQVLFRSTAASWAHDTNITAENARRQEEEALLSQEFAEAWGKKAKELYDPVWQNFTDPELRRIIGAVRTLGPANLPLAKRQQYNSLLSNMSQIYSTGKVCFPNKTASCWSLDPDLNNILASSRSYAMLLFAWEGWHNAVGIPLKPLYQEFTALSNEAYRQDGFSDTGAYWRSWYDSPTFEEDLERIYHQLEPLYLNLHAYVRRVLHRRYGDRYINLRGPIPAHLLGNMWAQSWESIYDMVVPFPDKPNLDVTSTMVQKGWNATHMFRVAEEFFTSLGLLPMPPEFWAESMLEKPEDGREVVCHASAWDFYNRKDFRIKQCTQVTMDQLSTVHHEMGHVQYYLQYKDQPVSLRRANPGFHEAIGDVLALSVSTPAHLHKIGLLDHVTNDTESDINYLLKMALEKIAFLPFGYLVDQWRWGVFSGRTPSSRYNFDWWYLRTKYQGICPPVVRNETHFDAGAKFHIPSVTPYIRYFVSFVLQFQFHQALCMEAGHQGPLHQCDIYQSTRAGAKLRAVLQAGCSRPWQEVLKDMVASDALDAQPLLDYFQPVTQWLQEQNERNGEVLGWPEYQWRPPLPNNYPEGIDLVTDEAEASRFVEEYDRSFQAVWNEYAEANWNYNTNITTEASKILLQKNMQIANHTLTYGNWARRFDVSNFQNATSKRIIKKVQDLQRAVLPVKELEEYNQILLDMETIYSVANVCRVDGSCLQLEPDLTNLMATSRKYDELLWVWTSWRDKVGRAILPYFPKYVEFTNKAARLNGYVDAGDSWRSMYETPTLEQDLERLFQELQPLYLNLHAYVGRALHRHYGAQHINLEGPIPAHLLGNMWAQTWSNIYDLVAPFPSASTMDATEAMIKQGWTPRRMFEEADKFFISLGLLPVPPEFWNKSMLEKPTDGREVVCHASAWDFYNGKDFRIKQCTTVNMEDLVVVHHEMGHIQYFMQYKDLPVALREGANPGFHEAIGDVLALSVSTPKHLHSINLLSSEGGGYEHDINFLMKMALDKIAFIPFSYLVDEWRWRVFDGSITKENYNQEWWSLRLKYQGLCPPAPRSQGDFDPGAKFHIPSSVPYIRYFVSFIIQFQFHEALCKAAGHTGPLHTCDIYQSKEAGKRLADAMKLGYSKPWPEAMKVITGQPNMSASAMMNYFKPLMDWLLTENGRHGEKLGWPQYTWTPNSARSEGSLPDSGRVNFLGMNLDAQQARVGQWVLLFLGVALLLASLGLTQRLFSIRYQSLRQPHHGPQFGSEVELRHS
Assay: Inhibition of angiotensin converting enzyme in vitro (hippuryl-histidyl-leucine cleavage, Cushman and Cheung method modified by Hayakari et al.)
Format: biochemical
Conditions: substrate hippuryl-histidyl-leucine 2 mM; potassium phosphate buffer pH 8.3, 300 mM NaCl; 25 minutes at 37° C.
Method: The activity of the present pyridazopyridazine derivatives in inhibiting angiotensin converting enzyme in vitro can be determined by the following test.
The method used is based on the method of Cushman and Cheung (Biochem. Pharmacol., 20, 1637-1648) incorporating the modifications introduced by Hayakari, et al. (Anal. Biochem., 84, 361-369). The substrate (hippuryl-histidyl-leucine, 2 mM) is incubated with angiotensin converting enzyme in the presence or absence of various concentrations of test substance in potassium phosphate buffer (pH 8.3; 100 mM) containing sodium chloride (300 mM) for 25 minutes at 37° C. (total […] 500 μl). The reaction is terminated by the addition of 3 ml of potassium phosphate buffer (pH 8.3; 200 mM) at 0° C. 2,4,6-Trichloro-s-triazine (3%) in 1.5 ml of dioxane is added and the mixture is agitated until the yellow chromophore has developed fully. The samples are then centrifuged to remove any precipitate which has formed. The yellow chromophore formed by the reaction of the 2,4,6-trichloro-s-triazine with free hippuric acid is measured spectrophotometrically at 382 nm. IC50 values are defined as the concentration of test substance which reduces by 50% the cleavage of hippuryl-histidylleucine by angiotensin converting enzyme under the aforementioned conditions.

O=C(O)C1CCCN2C(=O)CC(CS)C(=O)N12 (racemic) [racemic 8-(mercaptomethyl)-octahydro-6,9-dioxopyridazo[1,2-a]pyridazine-1-carboxylic acid]
IC50: 62.5 nM

Source: patent US4341781A, “Pyridazopyridazine derivatives” (Hoffmann-La Roche Inc., priority 1979, dated 1982)
